Experimental data taken from ChEMBL document CHEMBL1201862, “PubChem BioAssay data set” (2004).
Active and inactive are the calls of the source.

What was measured:
[1] = target: FAD-linked sulfhydryl oxidase ALR (Homo sapiens, UniProt P55789); experiment: ALR-catalysed DTT oxidation blockers – biochemical, H2O2 detection, luminescence, cherry-pick, dose response (AID 493248)
[2] = target: T1, Heat shock factor protein 1 (Mus musculus, UniProt P38532); experiment: decrease of HSF1-responsive luciferase luminescence – cell-based, NIH3T3, dose retest, confirmation (AID 2382); type: functional;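 note: NIH3T3 fibroblasts with HSF1-driven luciferase reporter stressed by proteasome inhibitor MG132; luminescence from HSF1-driven luciferase expression after 8 hours of MG132 stress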
T1 sequence (P38532 whole entry): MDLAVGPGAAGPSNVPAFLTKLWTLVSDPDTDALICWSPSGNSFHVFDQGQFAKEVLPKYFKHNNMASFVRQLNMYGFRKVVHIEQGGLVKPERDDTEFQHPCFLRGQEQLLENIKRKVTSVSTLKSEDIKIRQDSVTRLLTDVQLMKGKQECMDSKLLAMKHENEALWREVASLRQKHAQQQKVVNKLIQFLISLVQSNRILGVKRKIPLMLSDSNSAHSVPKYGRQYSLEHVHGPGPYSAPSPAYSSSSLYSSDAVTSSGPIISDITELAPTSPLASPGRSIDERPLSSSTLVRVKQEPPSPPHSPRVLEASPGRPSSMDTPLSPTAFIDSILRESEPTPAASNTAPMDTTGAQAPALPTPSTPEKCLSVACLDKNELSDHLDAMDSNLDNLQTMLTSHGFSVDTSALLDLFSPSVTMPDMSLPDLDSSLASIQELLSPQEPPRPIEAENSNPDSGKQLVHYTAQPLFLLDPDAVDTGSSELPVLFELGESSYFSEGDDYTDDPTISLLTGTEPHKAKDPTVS

[3] = target: T2, Rac GTPase-activating protein 1 (Homo sapiens, UniProt Q9H0H5); experiment: blockers of MgcRacGAP-driven Rac1 GTP hydrolysis – biochemical, ADP Hunter fluorescence, primary and confirmatory, confirmation (AID 624330); type: functional
T2 sequence (Q9H0H5 whole entry): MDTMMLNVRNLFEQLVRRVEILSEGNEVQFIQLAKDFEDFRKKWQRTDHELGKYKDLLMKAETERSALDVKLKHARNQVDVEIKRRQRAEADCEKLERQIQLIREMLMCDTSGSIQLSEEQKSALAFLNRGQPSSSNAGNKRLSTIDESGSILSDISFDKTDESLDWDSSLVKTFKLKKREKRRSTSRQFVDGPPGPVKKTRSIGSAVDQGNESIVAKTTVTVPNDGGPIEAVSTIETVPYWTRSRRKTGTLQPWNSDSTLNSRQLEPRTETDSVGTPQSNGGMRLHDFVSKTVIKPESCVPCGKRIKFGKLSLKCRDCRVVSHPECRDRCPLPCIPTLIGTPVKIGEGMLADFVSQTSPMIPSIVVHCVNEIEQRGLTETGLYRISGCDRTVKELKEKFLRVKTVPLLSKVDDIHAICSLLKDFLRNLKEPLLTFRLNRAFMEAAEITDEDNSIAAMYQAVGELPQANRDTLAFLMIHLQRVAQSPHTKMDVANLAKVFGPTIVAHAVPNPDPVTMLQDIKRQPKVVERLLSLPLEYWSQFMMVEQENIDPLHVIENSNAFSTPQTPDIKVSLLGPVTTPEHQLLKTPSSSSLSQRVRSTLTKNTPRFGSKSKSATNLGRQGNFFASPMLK

[4] = intracellular Trypanosoma cruzi inhibitors in host cells – cell-based, plate reader, cherry-pick samples, set 3, dose response (AID 651818); type: functional;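 note: compounds incubated with infected cells for about four days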
Cytochrome P450 3A4 = Cytochrome P450 3A4 (Homo sapiens, UniProt P08684); conditions: Potency;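 note: confirmatory qHTS run detecting inhibitors and substrates of CYP3A4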
Cytochrome P450 3A4, sequence (P08684 whole entry, the tested form may be a part): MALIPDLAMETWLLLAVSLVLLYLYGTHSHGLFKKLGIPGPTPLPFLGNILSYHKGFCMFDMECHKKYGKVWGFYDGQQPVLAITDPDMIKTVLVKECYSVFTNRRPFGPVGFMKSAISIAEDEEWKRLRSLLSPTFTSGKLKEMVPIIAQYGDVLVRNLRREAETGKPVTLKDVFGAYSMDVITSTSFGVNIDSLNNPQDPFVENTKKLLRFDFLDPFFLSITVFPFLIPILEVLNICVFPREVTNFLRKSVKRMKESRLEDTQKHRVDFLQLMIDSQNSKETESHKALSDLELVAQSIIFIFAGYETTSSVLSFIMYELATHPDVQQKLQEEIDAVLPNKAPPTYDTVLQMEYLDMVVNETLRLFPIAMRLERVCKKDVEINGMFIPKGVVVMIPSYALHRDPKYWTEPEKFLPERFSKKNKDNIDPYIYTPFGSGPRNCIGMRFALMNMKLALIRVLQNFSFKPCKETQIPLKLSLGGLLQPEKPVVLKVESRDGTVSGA

[5] = blockers of HIV-1 ZM109 envelope-driven cell-cell fusion – HeLa effector, CEM target cells, luciferase, cherry-pick, dose response (AID 652058); type: functional, cell-based;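 note: luciferase signal from HIV-1 Env mediated cell-cell fusion of effector and target cells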
[6] = Trypanosoma cruzi growth suppression in host cells – NIH3T3 host cells, beta-gal luminescence, confirmation (AID 2044); type: functional, cell-based;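 note: intracellular parasites grown in NIH/3T3 mouse fibroblasts as host cells; luminescent beta-galactosidase reporter signal from transgenic T. cruzi replicating inside host cells; inhibitors lower the luminescence signal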
[7] = blockers of HIV-1 envelope-mediated cell-cell fusion – cherry-pick, dose response (AID 652057); type: functional, cell-based
[8] = off-target signal loss in HeLa-CEM21 co-culture – HeLa F-luc CTL cells, cherry-picked, counter-screen for HIV-1 Env fusion inhibitor project, dose response (AID 652040); type: functional, cell-based;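 note: potency for signal decrease marking cytotoxic or nonspecific inhibition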
[9] = NIH3T3 cell viability loss – ATP luminescence, mouse fibroblasts, counter-screen, dose response (AID 2010); type: functional, cell-based;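 note: cells exposed to compound for about 90 hours before reading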
[10] = HIV-1 AD8 envelope cell-cell fusion blockers – cherry-pick, dose response (AID 652062); type: functional, cell-based;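 note: luciferase signal from cell-cell fusion driven by HIV-1 clade B AD8 Env; potency is for inhibitors of fusion seen as a drop in luminescence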
Streptococcus = experiment: GAS UMAA2166 growth inhibition – luminescence, BacTiterGlo, counter-screen for streptokinase expression inhibitor project, dose response (AID 1915); type: functional, organism-based;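 note: potency for reduction of bacterial viability or growth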
Streptokinase A = target: T3, Streptokinase A (Streptococcus pyogenes serotype M1, UniProt P10520); experiment: viability-normalized secreted streptokinase activity reduction – plasminogen activation absorbance, OD405, dose response (AID 1914); type: functional, Streptococcus pyogenes M1 GAS;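 note: secreted streptokinase activity via plasminogen activation per viability signal from cell pellet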
T3 sequence (P10520 whole entry): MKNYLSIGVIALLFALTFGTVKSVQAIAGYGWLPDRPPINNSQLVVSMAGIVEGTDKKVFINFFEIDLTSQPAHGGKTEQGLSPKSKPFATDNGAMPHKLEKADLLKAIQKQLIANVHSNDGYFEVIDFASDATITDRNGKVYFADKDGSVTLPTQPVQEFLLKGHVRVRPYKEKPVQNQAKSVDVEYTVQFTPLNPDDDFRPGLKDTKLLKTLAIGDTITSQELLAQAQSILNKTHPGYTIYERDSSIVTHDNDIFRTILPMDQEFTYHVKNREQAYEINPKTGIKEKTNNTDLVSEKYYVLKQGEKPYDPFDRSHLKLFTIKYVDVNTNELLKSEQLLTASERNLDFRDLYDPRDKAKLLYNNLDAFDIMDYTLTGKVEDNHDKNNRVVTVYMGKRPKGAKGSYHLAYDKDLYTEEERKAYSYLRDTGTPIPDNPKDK

[11] = target: T4, Zinc finger protein mex-5 (Caenorhabditis elegans, UniProt Q9XUB2); experiment: potency of MEX-5 RNA-binding blockers – biochemical, C. elegans, fluorescence polarization, dose response (AID 1960)
T4 sequence (Q9XUB2 whole entry): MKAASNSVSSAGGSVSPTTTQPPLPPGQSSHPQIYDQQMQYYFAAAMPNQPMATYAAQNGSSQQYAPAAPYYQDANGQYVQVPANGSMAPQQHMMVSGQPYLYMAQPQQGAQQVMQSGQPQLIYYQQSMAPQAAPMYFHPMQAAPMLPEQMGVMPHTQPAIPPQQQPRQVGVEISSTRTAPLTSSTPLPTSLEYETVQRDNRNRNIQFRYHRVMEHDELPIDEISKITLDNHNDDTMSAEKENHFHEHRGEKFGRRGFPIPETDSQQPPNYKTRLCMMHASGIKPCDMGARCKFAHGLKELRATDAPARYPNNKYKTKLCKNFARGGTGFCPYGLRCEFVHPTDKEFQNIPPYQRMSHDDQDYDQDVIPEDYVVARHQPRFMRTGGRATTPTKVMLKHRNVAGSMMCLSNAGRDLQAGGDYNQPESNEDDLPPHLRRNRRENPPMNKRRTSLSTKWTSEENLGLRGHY

[12] = target: T5, RNA-binding protein pos-1 (Caenorhabditis elegans, UniProt G5EF15); experiment: disruptors of C. elegans POS-1 RNA interaction – biochemical, fluorescence polarization, dose response (AID 1964);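 note: purified POS-1 fused to maltose binding protein made in E. coli; potency of compounds blocking POS-1 binding to fluorescent RNA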
T5 sequence (G5EF15 whole entry): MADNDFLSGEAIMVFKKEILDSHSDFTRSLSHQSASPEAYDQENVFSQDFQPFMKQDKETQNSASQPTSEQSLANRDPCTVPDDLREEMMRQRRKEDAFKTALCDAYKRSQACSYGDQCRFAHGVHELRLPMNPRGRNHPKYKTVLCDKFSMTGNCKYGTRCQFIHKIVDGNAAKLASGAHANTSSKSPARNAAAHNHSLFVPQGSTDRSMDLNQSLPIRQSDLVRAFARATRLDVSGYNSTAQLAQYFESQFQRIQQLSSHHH

[13] = tested on: Streptococcus sp. 'group A'; experiment: Streptococcus pyogenes SK(-)GAS viability under kanamycin – luminescence, BacTiterGlo, confirmation, counter-screen for streptokinase expression inhibitor project, dose response (AID 1900); type: functional, organism-based

FAD-linked sulfhydryl oxidase ALR, sequence (P55789 whole entry): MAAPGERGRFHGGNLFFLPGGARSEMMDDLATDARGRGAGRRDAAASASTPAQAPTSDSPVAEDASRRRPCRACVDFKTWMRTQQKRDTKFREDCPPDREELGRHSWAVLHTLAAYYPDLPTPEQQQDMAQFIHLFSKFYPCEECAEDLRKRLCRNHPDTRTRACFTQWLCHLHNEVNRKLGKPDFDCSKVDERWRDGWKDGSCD

Nc1ncc(Br)cc1S(=O)(=O)NCCC(=O)N1CCN(c2ccccc2)CC1
AC50 [1]: 1.56 µM (active)

CCOc1ccc(NCc2cccn2-c2nnc(N3CCC(C(=O)NCCCN4CCCCC4)CC3)s2)cc1
EC50 [2]: > 195 µM (not active) | IC50 [3]: 64.7 µM (active)

C[C@H](CO)N1C[C@H](C)[C@H](CN(C)CC2CC2)Oc2c(NC(=O)Nc3ccc(C(F)(F)F)cc3)cccc2C1=O
AC50 [4]: 2.66 µM (active)

CCC1=C(OC(=O)N(CC)CC)N2C(=O)O/C(=N\CCOC)[C@]2(C)[C@H]2C1=CC[C@H]1C(=O)N(C)C(=O)[C@H]12
AC50 (Cytochrome P450 3A4): 10 µM (inconclusive)

CC(=O)c1c(O)c(C)c(O)c2c1OC1=CC(=O)C(C(C)=O)C(=O)[C@@]12C (some centres not stated)
AC50 (Cytochrome P450 3A4): 12.6 µM (inconclusive)

c1ccc(CN2C3=NCCN3c3ccccc32)cc1
AC50 [1]: 40.9 µM (active)

COCc1cc(O)n2ncc(-c3ccsc3)c2n1
AC50 [1]: 3.5 µM (active)

C[C@H]1CN([C@@H](C)CO)C(=O)Cc2cc(NS(=O)(=O)c3ccccc3)ccc2O[C@H]1CN(C)Cc1ccc(C(=O)Nc2ccccc2N)cc1
AC50 [4]: 3.55 µM (active)

CCCCCn1c(SCC(=O)CC(=O)OCC)nc2cc(C(=O)N3CCC(C(N)=O)CC3)ccc2c1=O
EC50 [2]: > 195 µM (not active)

COc1ccc2c(c1)OCC(Cc1ccc(OC)c(OC(C)=O)c1)C2=O (configuration not stated) [DEOXYSAPPANONE B 7,3'-DIMETHYL ETHER ACETATE]
AC50 (Cytochrome P450 3A4): 39.8 µM (inconclusive)

CN(Cc1ccc(Cl)cc1Cl)C(=O)c1cccc(S(=O)(=O)N2CCN(c3ccccc3)CC2)c1
AC50 [5]: 36 µM (active) | EC50 [6]: 1.64 µM (active) | AC50 [7]: 23.9 µM (active) | AC50 [8]: > 70 µM (inactive) | EC50 [9]: > 60 µM (not active) | AC50 [10]: 43 µM (active)

C[C@H]1CN([C@@H](C)CO)C(=O)Cc2cc(N(C)C)ccc2O[C@H]1CN(C)Cc1ccc(Oc2ccccc2)cc1
AC50 [4]: 1.57 µM (active)

C[C@@H]1CN([C@@H](C)CO)C(=O)c2cccc(NC(=O)C3CCCCC3)c2O[C@H]1CN(C)CC1CC1
AC50 [4]: 8.92 µM (active)

COc1ccc(N2CCN(C(=O)Cc3ccc(OC)c(OC)c3)CC2)cc1
AC50 [1]: 7.7 µM (active)

C=CCOC(=O)C(C(=O)CC)C(NC(=O)OC)c1ccc(F)cc1 (configuration not stated)
AC50 (Cytochrome P450 3A4): 3.16 µM (inconclusive)

Cc1ccc(S(=O)(=O)N(C)C[C@@H]2Oc3ncc(Br)cc3C(=O)N([C@@H](C)CO)C[C@@H]2C)cc1
AC50 [5]: 3.56 µM (active) | AC50 [7]: 4.36 µM (active) | AC50 [10]: 9.72 µM (active)

Nc1ccc2[nH]c(C3CCCCC3)nc2c1
IC50 [3]: 70.2 µM (active) | AC50 [1]: 1.13 µM (active)

COc1ccccc1C(=O)Nc1ccc2c(c1)nc1n2CCSC1
AC50 [1]: 0.076 µM (active)

Nc1scc(-c2ccncc2)c1Cl
AC50 [1]: 1.73 µM (active)

COc1cc2ccc(=O)oc2c2ccoc12 [SPHONDIN]
AC50 (Cytochrome P450 3A4): 3.98 µM (inconclusive)

O=C(CNCC1CCCCC1)Nc1ccc(N2CCCCC2)cc1
AC50 [1]: 13.4 µM (active)

CCCCCC(=O)N/N=C/c1cc(Br)c(O)c(OC)c1
AC50 [1]: 0.098 µM (active)

O=C(CCc1ccccc1)Nc1cccc([N+](=O)[O-])c1
EC50 [2]: > 195 µM (not active)

CN(C)c1ccc(C(c2nnnn2C(C)(C)C)N2CCN(C(=O)c3ccco3)CC2)cc1 (configuration not stated)
AC50 [1]: 3.83 µM (active)

Cc1cc(OCC(=O)NCCc2ccc(S(N)(=O)=O)cc2)c2c(C)cc(=O)oc2c1
EC50 [2]: > 195 µM (not active)

C[C@H]1CN([C@@H](C)CO)C(=O)Cc2cc(NS(=O)(=O)c3ccc(F)cc3)ccc2O[C@@H]1CN(C)Cc1ccc(-c2ccccc2)cc1
AC50 [4]: 3.21 µM (active)

Cn1cc(CN2CCc3ccccc3C2)c2ccccc21
EC50 [2]: > 195 µM (not active)

CC(C)CNC(=O)c1ccccc1NC(=O)c1ccccc1N(C)S(=O)(=O)c1ccccc1
AC50 [5]: 0.937 µM (active) | AC50 [7]: 0.961 µM (active) | AC50 [8]: 1.62 µM (active) | AC50 [10]: 0.261 µM (active)

CCCc1nc(-c2ccccc2O)n(-c2ccccc2)n1
EC50 [2]: > 195 µM (not active)

c1cnc2ccc(C(c3nnnn3C3CCCCC3)N3CCCCC3)cc2c1 (configuration not stated)
AC50 [5]: 14.9 µM (active) | AC50 [7]: 4.05 µM (active) | AC50 [8]: 6.97 µM (active) | AC50 [10]: 10.1 µM (active)

COc1ccc(NC(=O)Nc2ccc3c(c2)CC(=O)N([C@@H](C)CO)C[C@H](C)[C@H](CN(C)Cc2ccc(-c4ccccc4)cc2)O3)cc1
AC50 [4]: 3.37 µM (active)

COc1ccc(S(=O)(=O)Nc2ccc3c(c2)C(=O)N([C@@H](C)CO)C[C@H](C)[C@H](CN(C)Cc2ccc(C(F)(F)F)cc2)O3)cc1
AC50 [4]: 4.07 µM (active)

Cc1ccc(/C=C2/Sc3ccc(C(=O)N4CCC5(CC4)OCCO5)cc3NC2=O)cc1
EC50 (Streptococcus): 9.49 µM (active) | EC50 (Streptokinase A): > 150 µM (not active) | EC50 [11]: 8.06 µM (inconclusive) | EC50 [12]: 4.37 µM (active) | EC50 [13]: 7.6 µM (active)

Cc1n[nH]c2ncc(C(=O)c3ccccc3O)cc12
AC50 [5]: 0.606 µM (active) | AC50 [7]: 6.5 µM (active) | AC50 [8]: 2.78 µM (active) | AC50 [10]: 4.64 µM (active)

C[C@H]1CN([C@@H](C)CO)C(=O)Cc2cc(NC(=O)Cc3cn(C)c4ccccc34)ccc2O[C@H]1CN(C)Cc1ccc(Oc2ccccc2)cc1
AC50 [4]: 5.58 µM (active)
